Key:
[1] = biological target: T1, human phosphopantothenoylcysteine synthetase (hPPCS) (Homo sapiens, UniProt Q9HAB8); assay: X-ray crystal structure at […] Å; type: binding
[2] = biological target: T2, human pantothenate kinase hPANK1β (Homo sapiens, UniProt Q8TE04); assay: PK/LDH-coupled kinase assay, substrate turnover; type: biochemical; conditions: read-out: KM or K0.5
T2 sequence (Q8TE04 1-373 isoform Q8TE04-2): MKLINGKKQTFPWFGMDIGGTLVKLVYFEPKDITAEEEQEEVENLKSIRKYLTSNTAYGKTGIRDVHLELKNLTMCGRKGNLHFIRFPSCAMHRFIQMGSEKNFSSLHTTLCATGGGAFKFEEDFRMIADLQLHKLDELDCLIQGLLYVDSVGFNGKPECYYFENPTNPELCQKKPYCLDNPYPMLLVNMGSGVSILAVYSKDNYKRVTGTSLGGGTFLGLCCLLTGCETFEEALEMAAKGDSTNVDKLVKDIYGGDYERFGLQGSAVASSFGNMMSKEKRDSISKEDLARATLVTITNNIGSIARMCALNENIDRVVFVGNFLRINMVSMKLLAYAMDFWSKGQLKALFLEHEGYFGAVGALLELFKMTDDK

[3] = biological target: T1, human phosphopantothenoylcysteine synthetase (hPPCS); assay: X-ray crystal structure at […] Å; type: biochemical
[4] = biological target: T3, fruit fly phosphopantothenoylcysteine synthetase (dPPCS) (Drosophila melanogaster, UniProt Q7KN99); assay: pyrophosphate-coupled NADH oxidation enzyme assay; type: biochemical
T3 sequence (Q7KN99 1-313): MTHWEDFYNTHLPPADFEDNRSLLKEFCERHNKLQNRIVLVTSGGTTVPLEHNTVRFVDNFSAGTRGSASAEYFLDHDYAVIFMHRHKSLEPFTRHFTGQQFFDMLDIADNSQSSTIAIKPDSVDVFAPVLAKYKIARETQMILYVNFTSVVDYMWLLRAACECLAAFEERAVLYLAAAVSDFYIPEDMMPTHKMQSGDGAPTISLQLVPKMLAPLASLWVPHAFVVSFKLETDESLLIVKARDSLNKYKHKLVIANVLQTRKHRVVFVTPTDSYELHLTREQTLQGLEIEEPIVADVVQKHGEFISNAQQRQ

T1 sequence (Q9HAB8 2-311): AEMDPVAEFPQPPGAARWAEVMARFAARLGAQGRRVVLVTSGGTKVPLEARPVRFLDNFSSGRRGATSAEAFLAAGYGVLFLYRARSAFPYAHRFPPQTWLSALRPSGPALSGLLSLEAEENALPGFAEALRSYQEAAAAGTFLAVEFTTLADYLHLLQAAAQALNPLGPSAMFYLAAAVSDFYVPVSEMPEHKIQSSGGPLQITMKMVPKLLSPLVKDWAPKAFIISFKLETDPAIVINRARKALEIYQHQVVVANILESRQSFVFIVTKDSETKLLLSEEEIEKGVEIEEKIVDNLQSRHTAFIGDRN

| SMILES | Km [2] [µM] | also measured |
| --- | --- | --- |
| Nc1ncnc2c1ncn2[C@@H]1O[C@H](CO[P@](=O)(O)O[P@](=O)(O)NP(=O)(O)O)[C@@H](O)[C@H]1O [AMPPNP] |  | X-ray crystal structure at 1.9 Å (ternary complex with P-HoPan) [1]: electron densities for the co-factor AMPPNP and the ligand P-HoPan observed in both monomers |
| CC(C)(COP(=O)(O)O)[C@@H](O)C(=O)NCCCC(=O)O [compound 2, P-HoPan] |  | Ki [3]: 13.4 ± 3.6 µM; Ki [4]: 20.9 ± 1.1 µM |

Continued, in another order:

| Km [2] [µM] | SMILES | also measured |
| --- | --- | --- |
| 12.1 ± 1.9 | CC(C)(CO)[C@@H](O)C(=O)NCCCC(=O)O [compound 1, HoPan] |  |
| 6.2 ± 0.88 | CC(C)(CO)[C@@H](O)C(=O)NCCC(=O)O [compound 3, Pan] |  |
| 9.85 ± 1.17 | CC(C)(CO)[C@@H](O)C(=O)NCCC(=O)NCCS [compound 6, PantSH] |  |
